Target: one or more of HDAC-4, HDAC-5, HDAC-6, HDAC-7, HDAC-8, HDAC-9, HDAC-10 and HDAC-11
Assay: Inhibition of histone deacetylase enzymatic activity (summary statement over isoforms)
Format: biochemical
Conditions: Table 3, selected examples; HDAC isoform not given
Description: The following protocol is used to assay the compounds of the invention.
The mixture is pre-incubated for 5 minutes at room temperature. The reaction is started by bringing the temperature to 37° C. and adding 15 μL substrate. Total reaction volume is 50 μL.
A 30 mM stock of Boc-Lys(trifluoroacetyl)-AMC substrate is prepared in DMSO. […] Reaction is started by adding 18 μL Boc-Lys(trifluoroacetyl)-AMC substrate and incubating at 37° C. for 20-30 minutes. The reaction is stopped by adding 50 μL trypsin (1 mg/mL) and a known HDAC inhibitor.

SMILES | IC50
O=C(NO)C(c1ccccc1)c1ccc(OCCc2ccccc2)cc1 (centres unmarked) [Compound 2-12, N-hydroxy-2-(4-phenethoxyphenyl)-2-phenylacetamide] | < 1000 nM
O=C(NO)C(c1ccccc1)c1ccc(OCc2ccc(F)cc2)cc1 (centres unmarked) [Compound 2-13] | < 1000 nM
COc1cccc(COc2ccc(C(C(=O)NO)c3ccccc3)cc2)c1 (centres unmarked) [Compound 2-14, N-hydroxy-2-(4-(3-methoxybenzyloxy)phenyl)-2-phenylacetamide] | < 1000 nM
O=C(NO)C(Oc1ccc2c(c1)CCC2)c1ccccc1 (centres unmarked) [Compound 2-16, 2-(2,3-dihydro-1H-inden-5-yloxy)-N-hydroxy-2-phenylacetamide] | 1000 to 15000 nM
CCCC(=O)N1CCCN(C(C(=O)NO)c2ccccc2)CC1 (centres unmarked) [Compound 2-22, 2-(4-butyryl-1,4-diazepan-1-yl)-N-hydroxy-2-phenylacetamide] | 1000 to 15000 nM
CCCC(=O)N1CCN(C(C(=O)NO)c2ccccc2)CC1 (centres unmarked) [Compound 2-23, 2-(4-butyrylpiperazin-1-yl)-N-hydroxy-2-phenylacetamide] | 1000 to 15000 nM
CC(C)(C)C(=O)N1CCCN(C(C(=O)NO)c2ccccc2)CC1 (centres unmarked) [Compound 2-24, N-hydroxy-2-phenyl-2-(4-pivaloyl-1,4-diazepan-1-yl)acetamide] | 1000 to 15000 nM
O=C(NO)C(c1ccccc1)N1CCN(C(=O)c2ccco2)CC1 (centres unmarked) [Compound 2-27, 2-(4-(furan-2-carbonyl)piperazin-1-yl)-N-hydroxy-2-phenylacetamide] | 1000 to 15000 nM
O=C(NO)C(c1ccccc1)N1CCN(C(=O)Cc2ccccc2)CC1 (centres unmarked) [Compound 2-28, N-hydroxy-2-phenyl-2-(4-(2-phenylacetyl)piperazin-1-yl)acetamide] | 1000 to 15000 nM
Cc1cccc(C(=O)N2CCCN(C(C(=O)NO)c3ccccc3)CC2)c1 (centres unmarked) [Compound 2-29, N-hydroxy-2-(4-(3-methylbenzoyl)-1,4-diazepan-1-yl)-2-phenylacetamide] | 1000 to 15000 nM
CC(C)NC(=O)N1CCCN(C(C(=O)NO)c2ccccc2)CC1 (centres unmarked) [Compound 2-31, 4-(2-(hydroxyamino)-2-oxo-1-phenylethyl)-N-isopropyl-1,4-diazepane-1-carboxamide] | 1000 to 15000 nM
O=C(NO)C(c1ccccc1)N1CCN(C(=O)Nc2cccnc2)CC1 (centres unmarked) [Compound 2-34, 4-(2-(hydroxyamino)-2-oxo-1-phenylethyl)-N-(pyridin-3-yl)piperazine-1-carboxamide] | 1000 to 15000 nM
Cc1ccccc1NC(=O)N1CCN(C(C(=O)NO)c2ccccc2)CC1 (centres unmarked) [Compound 2-36, 4-(2-(hydroxyamino)-2-oxo-1-phenylethyl)-N-o-tolylpiperazine-1-carboxamide] | 1000 to 15000 nM
COc1cccc(NC(=O)N2CCCN(C(C(=O)NO)c3ccccc3)CC2)c1 (centres unmarked) [Compound 2-37, 4-(2-(hydroxyamino)-2-oxo-1-phenylethyl)-N-(3-methoxyphenyl)-1,4-diazepane-1-carboxamide] | 1000 to 15000 nM
Cn1cnc(S(=O)(=O)N2CCN(C(C(=O)NO)c3ccccc3)CC2)c1 (centres unmarked) [Compound 2-38, N-hydroxy-2-(4-(1-methyl-1H-imidazol-4-ylsulfonyl)piperazin-1-yl)-2-phenylacetamide] | < 1000 nM
Cn1cnc(S(=O)(=O)N2CCCN(C(C(=O)NO)c3ccccc3)CC2)c1 (centres unmarked) [Compound 2-39, N-hydroxy-2-(4-(1-methyl-1H-imidazol-4-ylsulfonyl)-1,4-diazepan-1-yl)-2-phenylacetamide] | 1000 to 15000 nM
O=C(NO)C(c1ccccc1)N1CCC2(CC1)OCCO2 (centres unmarked) [Compound 2-41, N-hydroxy-2-phenyl-2-(1,4-dioxa-8-azaspiro[4.5]decan-8-yl)acetamide] | 1000 to 15000 nM
O=C(NO)C(c1ccccc1)N1CCC(N2CCOCC2)CC1 (centres unmarked) [Compound 2-42, N-hydroxy-2-(4-morpholinopiperidin-1-yl)-2-phenylacetamide] | 1000 to 15000 nM
O=C(NO)C(c1ccccc1)N1CCC(c2nc(-c3ccc4c(c3)OCO4)no2)CC1 (centres unmarked) [Compound 2-44, 2-(4-(3-(benzo[d][1,3]dioxol-5-yl)-1,2,4-oxadiazol-5-yl)piperidin-1-yl)-N-hydroxy-2-phenylacetamide] | < 1000 nM
O=C(NO)C(c1ccccc1)c1cccc(NCc2ccc(F)cc2)c1 (centres unmarked) [Compound 2-50, 2-(3-(4-fluorobenzylamino)phenyl)-N-hydroxy-2-phenylacetamide] | < 1000 nM
CC(C)CC(=O)Nc1ccc(C(C(=O)NO)c2ccccc2)cc1 (centres unmarked) [Compound 2-53, N-(4-(2-(hydroxyamino)-2-oxo-1-phenylethyl)phenyl)-3-methylbutanamide] | < 1000 nM
CC(C)CC(=O)Nc1cccc(C(C(=O)NO)c2ccccc2)c1 (centres unmarked) [Compound 2-54, N-(3-(2-(hydroxyamino)-2-oxo-1-phenylethyl)phenyl)-3-methylbutanamide] | 1000 to 15000 nM
O=C(Nc1ccc(C(C(=O)NO)c2ccccc2)cc1)c1ccccc1 (centres unmarked) [Compound 2-55, N-(4-(2-(hydroxyamino)-2-oxo-1-phenylethyl)phenyl)benzamide] | < 1000 nM
O=C(Nc1cccc(C(C(=O)NO)c2ccccc2)c1)c1ccccc1 (centres unmarked) [Compound 2-56, N-(3-(2-(hydroxyamino)-2-oxo-1-phenylethyl)phenyl)benzamide] | 1000 to 15000 nM

Next, values leading:

IC50 | SMILES
1000 to 15000 nM | Cc1ccc(OC(C(=O)NO)c2ccccc2)cc1 (centres unmarked) [Compound 2-15, N-hydroxy-2-phenyl-2-(p-tolyloxy)acetamide]
1000 to 15000 nM | CC(C)c1ccc(SC(C(=O)NO)c2ccccc2)cc1 (centres unmarked) [Compound 2-21, N-hydroxy-2-(4-isopropylphenylthio)-2-phenylacetamide]
1000 to 15000 nM | O=C(NO)C(c1ccccc1)N1CCN(Cc2cccnc2)CC1 (centres unmarked) [Compound 2-40, N-hydroxy-2-phenyl-2-(4-(pyridin-3-ylmethyl)piperazin-1-yl)acetamide]
< 1000 nM | O=C(NO)C(c1ccccc1)N1CCC(c2nc(-c3cccnc3)no2)CC1 (centres unmarked) [Compound 2-43, N-hydroxy-2-phenyl-2-(4-(3-(pyridin-3-yl)-1,2,4-oxadiazol-5-yl)piperidin-1-yl)acetamide]
1000 to 15000 nM | O=C(NO)C(Sc1ccncc1)c1ccccc1 (centres unmarked) [Compound 2-45, N-hydroxy-2-phenyl-2-(pyridin-4-ylthio)acetamide]
1000 to 15000 nM | Cc1occc1SC(C(=O)NO)c1ccccc1 (centres unmarked) [Compound 2-46, N-hydroxy-2-(2-methylfuran-3-ylthio)-2-phenylacetamide]
1000 to 15000 nM | O=C(NO)C(Sc1ccc(C(F)(F)F)cn1)c1ccccc1 (centres unmarked) [Compound 2-47, N-hydroxy-2-phenyl-2-(5-(trifluoromethyl)pyridin-2-ylthio)acetamide]
1000 to 15000 nM | O=C(NO)C(Sc1nccc(-c2cccs2)n1)c1ccccc1 (centres unmarked) [Compound 2-48, N-hydroxy-2-phenyl-2-(4-(thiophen-2-yl)pyrimidin-2-ylthio)acetamide]
< 1000 nM | O=C(NO)C(Sc1ccnc2cc(C(F)(F)F)ccc12)c1ccccc1 (centres unmarked) [Compound 2-49, N-hydroxy-2-phenyl-2-(7-(trifluoromethyl)quinolin-4-ylthio)acetamide]
< 1000 nM | O=C(NO)C(c1ccccc1)c1ccc(NCc2ccc(F)cc2)cc1 (centres unmarked) [Compound 2-51, 2-(4-(4-fluorobenzylamino)phenyl)-N-hydroxy-2-phenylacetamide]
1000 to 15000 nM | CC(=O)Nc1cccc(C(C(=O)NO)c2ccccc2)c1 (centres unmarked) [Compound 2-52, 2-(3-acetamidophenyl)-N-hydroxy-2-phenylacetamide]

From patent US9096565B2, “Inhibitors of histone deacetylase” (MethylGene Inc., priority 2007, dated 2015)
